This is an account of results in patent US5869602A, “Peptide derivatives” (Novo Nordisk A/S, priority 1995, dated 1999).

Non-standard residues stand in square brackets, D forms with d. Residues, ends and D or L forms follow the SMILES beside them. *: point of attachment. Myristoyl = CCCCCCCCCCCCCC(=O)*; Nle = CCCC[C@H](N)C(=O)O; For = O=C*

Data set [1] can be described thus: Determination of lipophilicity relative to human insulin (k'rel) by RP-HPLC. The following applies: pH 7.3. It is filed as physicochemical. As for the experimental part: The lipophilicity of peptides and peptide derivatives relative to human insulin, k'rel, was measured on a LiChrosorb RP18 (5 μm, 4×250 mm) HPLC column by isocratic elution at 40° C. using mixtures of A) 0.1M sodium phosphate buffer, pH 7.3, containing 10% acetonitrile, and B) 50% acetonitrile in water as eluents. The elution was monitored by following the UV absorption of the eluate at 214 nm. Void time, t0, was found by injecting 0.1 mM sodium nitrate. Retention time for human insulin. tinsulin, was adjusted to at least 2t0 by varying the ratio between the A and B solutions. k'rel =(tderivate -t0)/(tinsulin -t0).

Another data set concerns rabbits. Kind of data set: Blood glucose in rabbits pre-treated with Insulin Actrapid, after SC injection. It counts as in vivo.
Setting [2] is: LiChrosorb RP18 HPLC, isocratic elution, 40° C.

Method for rabbits: The resulting solution was sterilized by filtration and transferred to a vial.
Blood was sampled at times: -60, 0, 15, 30, 60, 120, 180 and 240 min, and the glucose concentration determined by the hexokinase method.

As to `CCCC[C@H](NC=O)C(=O)N[C@@H](CC(C)C)C(=O)N[C@@H](Cc1ccccc1)C(=O)N[C@@H](CCCC)C(=O)N[C@@H](Cc1ccc(O)cc1)C(=O)N[C@@H](CCCCN)C(=O)O` [For-Nle-Leu-Phe-Nle-Tyr-Lys-OH] (HELM PEPTIDE1{[O=C[*:2]].[Nle].L.F.[Nle].Y.K}$$$$V2.0), in data set [1], the “lipophilicity relative to human insulin, k'rel” value amounted to 2.3.
Consider `CCCCCCCCCCCCCC(=O)NCCCC[C@H](NC(=O)[C@H](Cc1ccc(O)cc1)NC(=O)[C@@H](NC(=O)[C@H](Cc1ccccc1)NC(=O)[C@H](Cc1ccccc1)NC(=O)[C@H](Cc1c[nH]cn1)NC(=O)[C@H](Cc1ccccc1)NC(=O)[C@@H]1CCCN1C(=O)[C@H](Cc1c[nH]cn1)NC(=O)[C@@H]1CCCN1)C(C)C)C(=O)O` [Example 3] (H-PHPFHFFVYK(Myristoyl)-OH), for which the “lipophilicity relative to human insulin, k'rel” value in data set [1] (setting [2]) was 5.3×10^3.
The same measure, in the same setting: in the case of `CC(C)C[C@H](NC(=O)[C@H](Cc1ccccc1)NC(=O)CNC(=O)[C@@H](C)NC(=O)[C@@H](N)Cc1ccc(O)cc1)C(=O)N[C@@H](CCCCN)C(=O)O` [H-Tyr-D-Ala-Gly-Phe-Leu-Lys-OH] (HELM PEPTIDE1{Y.[dA].G.F.L.K}$$$$V2.0) it was 3.0×10^-3.
The same measure, in the same setting: in the case of `CCCCCCCCCCCCCC(=O)NCCCC[C@H](NC(=O)[C@H](Cc1ccc(O)cc1)NC(=O)[C@H](CCCC)NC(=O)[C@H](Cc1ccccc1)NC(=O)[C@H](CC(C)C)NC(=O)[C@H](CCCC)NC=O)C(=O)O` [Example 1, For-Nle-Leu-Phe-Nle-Tyr-Lys(N^ε -tetradecanoyl)-OH] (For-[Nle]LF[Nle]YK(Myristoyl)-OH) it was 8.2×10^3; in that of H-PHPFHFFVYK-OH, 2.3×10^2.
For the compound “Lys^30 (Nε-decanoyl) glucagon [Example 6]”, the blood glucose concentration in the data set on rabbits (0 min (time of SC injection of test substance)) is listed as 51 mg glucose/100 ml; in the data set on rabbits (15 min after SC injection) it was 79 mg glucose/100 ml; with rabbits (30 min after SC injection), 93 mg glucose/100 ml; with rabbits (60 min after SC injection), 114 mg glucose/100 ml; with rabbits (120 min after SC injection), 112 mg glucose/100 ml; in the data set with rabbits (180 min after SC injection) it was 116 mg glucose/100 ml. For the same compound, the blood glucose concentration with rabbits (240 min after SC injection) came to 110 mg glucose/100 ml; in the data set with rabbits (-60 min (time of 2 IU Insulin Actrapid, before test substance)), 94 mg glucose/100 ml. Also, in the data set on rabbits (SC, conclusion from the table), the “blood glucose raising effect compared with glucagon” value is “prolonged action”.
